This note sets out measurements from patent US12258328B2, “6-membered heteroaryl-containing aminopyridine compounds as EGFR inhibitors” (YUHAN CORPORATION, priority 2021, dated 2025).

Test [1] concerns the target EGFR wildtype (Homo sapiens, UniProt P00533). The test is described as follows: Biochemical EGFR kinase assay (Lance Ultra TR-FRET), wildtype. Summed up:
(§1)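 Enzyme reactions lasted 1 hour at room temperature with test compounds between 0.003 and 10 μM, followed by 10 mM EDTA quench.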
A general note: In TR-FRET formats the signal depends on donor and acceptor labels being close together.

The target of test [2] is EGFR L858R/T790M/C797S (Homo sapiens, UniProt P00533, C797S/L858R/T790M). In words: Biochemical EGFR kinase assay (Lance Ultra TR-FRET), triple mutant L858R/T790M/C797S. Summed up: as §1
EGFR L858R/T790M/C797S, sequence (P00533 25-1210 T790M/C797S/L858R): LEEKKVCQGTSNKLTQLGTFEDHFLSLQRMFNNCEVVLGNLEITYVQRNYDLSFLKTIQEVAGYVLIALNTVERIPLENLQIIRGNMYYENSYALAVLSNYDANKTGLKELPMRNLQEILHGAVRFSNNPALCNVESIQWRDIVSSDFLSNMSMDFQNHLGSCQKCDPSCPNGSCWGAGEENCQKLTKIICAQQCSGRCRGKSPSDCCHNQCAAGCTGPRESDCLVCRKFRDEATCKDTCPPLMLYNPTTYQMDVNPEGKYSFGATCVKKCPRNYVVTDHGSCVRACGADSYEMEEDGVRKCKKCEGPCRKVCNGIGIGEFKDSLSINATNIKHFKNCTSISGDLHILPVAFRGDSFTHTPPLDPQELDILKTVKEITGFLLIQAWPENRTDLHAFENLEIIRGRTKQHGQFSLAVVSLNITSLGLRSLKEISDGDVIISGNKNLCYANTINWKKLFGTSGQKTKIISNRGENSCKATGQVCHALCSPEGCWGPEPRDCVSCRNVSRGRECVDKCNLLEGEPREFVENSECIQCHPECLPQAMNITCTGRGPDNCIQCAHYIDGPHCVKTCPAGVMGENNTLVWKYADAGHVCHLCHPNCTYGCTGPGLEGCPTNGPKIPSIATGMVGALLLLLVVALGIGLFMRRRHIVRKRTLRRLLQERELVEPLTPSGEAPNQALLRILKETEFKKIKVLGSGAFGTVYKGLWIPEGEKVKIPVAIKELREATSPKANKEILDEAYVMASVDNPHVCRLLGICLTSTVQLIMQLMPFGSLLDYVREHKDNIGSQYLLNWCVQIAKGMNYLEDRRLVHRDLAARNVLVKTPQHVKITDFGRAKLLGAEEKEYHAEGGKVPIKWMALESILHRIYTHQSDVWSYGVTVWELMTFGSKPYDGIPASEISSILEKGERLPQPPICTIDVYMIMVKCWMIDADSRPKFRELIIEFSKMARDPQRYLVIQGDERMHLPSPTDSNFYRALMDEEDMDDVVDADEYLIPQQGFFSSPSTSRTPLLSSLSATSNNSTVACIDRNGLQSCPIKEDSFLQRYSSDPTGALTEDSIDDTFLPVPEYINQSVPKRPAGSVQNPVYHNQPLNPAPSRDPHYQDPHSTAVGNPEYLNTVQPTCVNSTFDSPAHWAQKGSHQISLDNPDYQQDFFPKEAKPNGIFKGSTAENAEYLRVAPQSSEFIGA
The target in test [3] is EGFR del19/T790M/C797S (Homo sapiens, UniProt P00533, C797S/DEL746-750/T790M). The test is described as follows: Biochemical EGFR kinase assay (Lance Ultra TR-FRET), triple mutant del19/T790M/C797S. Summed up: as §1
Test [4] concerns the target EGFR L858R/C797S (Homo sapiens, UniProt P00533, C797S/L858R). In words: Biochemical EGFR kinase assay (Lance Ultra TR-FRET), double mutant L858R/C797S. The method, boiled down:
as §1

Test [5] addresses EGFR del19/C797S (Homo sapiens, UniProt P00533, C797S/DEL746-750). The test is described as follows: Biochemical EGFR kinase assay (Lance Ultra TR-FRET), double mutant del19/C797S. Summed up:
as §1

Where [6] appears, read: IC50 WT (nM) 100 μM ATP, 100 μM ATP.
The mark [7] stands for this setting: Km ATP, read-out: IC50 WT (nM) Km ATP.
[8] abbreviates: IC50 L858R/T790M/C797S (nM) 100 μM ATP, 100 μM ATP.
[9] abbreviates: Km ATP, read-out: IC50 L858R/T790M/C797S (nM) Km ATP.
Where [10] appears, read: Km ATP, read-out: IC50 del19/T790M/C797S (nM) Km ATP.
The mark [11] stands for this setting: IC50 L858R/C797S (nM) 100 μM ATP, 100 μM ATP.
The mark [12] stands for this setting: Km ATP, read-out: IC50 L858R/C797S (nM) Km ATP.
[13] abbreviates: IC50 del19/C797S (nM) 100 μM ATP, 100 μM ATP.
The mark [14] stands for this setting: Km ATP, read-out: IC50 del19/C797S (nM) Km ATP.
The mark [15] stands for this setting: IC50 del19/T790M/C797S (nM) 100 μM ATP, 100 μM ATP.

Read-outs that look alike come from different tables or passages of the source.

EGFR del19/C797S, sequence (P00533 with tags, fused parts or gaps DEL746-750/C797S): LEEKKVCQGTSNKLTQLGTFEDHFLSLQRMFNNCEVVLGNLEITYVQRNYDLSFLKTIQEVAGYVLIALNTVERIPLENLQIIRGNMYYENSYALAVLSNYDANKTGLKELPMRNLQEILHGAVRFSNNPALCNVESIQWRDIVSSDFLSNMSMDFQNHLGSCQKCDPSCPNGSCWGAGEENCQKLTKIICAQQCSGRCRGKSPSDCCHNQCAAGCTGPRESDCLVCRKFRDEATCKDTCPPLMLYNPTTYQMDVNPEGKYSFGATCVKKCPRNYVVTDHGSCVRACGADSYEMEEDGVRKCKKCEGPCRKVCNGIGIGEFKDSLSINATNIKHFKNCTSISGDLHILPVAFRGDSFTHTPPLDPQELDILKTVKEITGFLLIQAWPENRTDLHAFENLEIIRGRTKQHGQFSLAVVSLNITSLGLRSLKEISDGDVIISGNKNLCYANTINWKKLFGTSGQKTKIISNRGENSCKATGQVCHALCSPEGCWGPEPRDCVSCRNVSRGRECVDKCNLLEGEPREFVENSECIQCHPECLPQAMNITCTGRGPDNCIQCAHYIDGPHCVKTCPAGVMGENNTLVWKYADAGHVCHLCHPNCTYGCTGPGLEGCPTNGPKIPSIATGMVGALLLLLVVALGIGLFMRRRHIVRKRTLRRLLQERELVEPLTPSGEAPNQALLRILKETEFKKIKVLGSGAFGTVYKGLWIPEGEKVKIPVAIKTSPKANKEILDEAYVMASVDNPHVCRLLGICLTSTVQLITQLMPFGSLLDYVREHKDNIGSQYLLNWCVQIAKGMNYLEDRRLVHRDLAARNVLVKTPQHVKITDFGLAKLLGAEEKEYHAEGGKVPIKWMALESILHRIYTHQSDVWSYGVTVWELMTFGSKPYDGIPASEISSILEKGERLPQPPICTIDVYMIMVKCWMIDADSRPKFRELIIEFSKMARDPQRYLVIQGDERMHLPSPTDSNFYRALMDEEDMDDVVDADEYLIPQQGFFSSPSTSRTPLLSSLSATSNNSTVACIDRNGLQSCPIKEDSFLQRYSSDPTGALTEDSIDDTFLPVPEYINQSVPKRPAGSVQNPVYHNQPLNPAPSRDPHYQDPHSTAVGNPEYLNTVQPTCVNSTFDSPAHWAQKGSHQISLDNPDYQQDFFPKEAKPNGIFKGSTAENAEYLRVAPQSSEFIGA
EGFR wildtype, sequence (P00533 25-1210): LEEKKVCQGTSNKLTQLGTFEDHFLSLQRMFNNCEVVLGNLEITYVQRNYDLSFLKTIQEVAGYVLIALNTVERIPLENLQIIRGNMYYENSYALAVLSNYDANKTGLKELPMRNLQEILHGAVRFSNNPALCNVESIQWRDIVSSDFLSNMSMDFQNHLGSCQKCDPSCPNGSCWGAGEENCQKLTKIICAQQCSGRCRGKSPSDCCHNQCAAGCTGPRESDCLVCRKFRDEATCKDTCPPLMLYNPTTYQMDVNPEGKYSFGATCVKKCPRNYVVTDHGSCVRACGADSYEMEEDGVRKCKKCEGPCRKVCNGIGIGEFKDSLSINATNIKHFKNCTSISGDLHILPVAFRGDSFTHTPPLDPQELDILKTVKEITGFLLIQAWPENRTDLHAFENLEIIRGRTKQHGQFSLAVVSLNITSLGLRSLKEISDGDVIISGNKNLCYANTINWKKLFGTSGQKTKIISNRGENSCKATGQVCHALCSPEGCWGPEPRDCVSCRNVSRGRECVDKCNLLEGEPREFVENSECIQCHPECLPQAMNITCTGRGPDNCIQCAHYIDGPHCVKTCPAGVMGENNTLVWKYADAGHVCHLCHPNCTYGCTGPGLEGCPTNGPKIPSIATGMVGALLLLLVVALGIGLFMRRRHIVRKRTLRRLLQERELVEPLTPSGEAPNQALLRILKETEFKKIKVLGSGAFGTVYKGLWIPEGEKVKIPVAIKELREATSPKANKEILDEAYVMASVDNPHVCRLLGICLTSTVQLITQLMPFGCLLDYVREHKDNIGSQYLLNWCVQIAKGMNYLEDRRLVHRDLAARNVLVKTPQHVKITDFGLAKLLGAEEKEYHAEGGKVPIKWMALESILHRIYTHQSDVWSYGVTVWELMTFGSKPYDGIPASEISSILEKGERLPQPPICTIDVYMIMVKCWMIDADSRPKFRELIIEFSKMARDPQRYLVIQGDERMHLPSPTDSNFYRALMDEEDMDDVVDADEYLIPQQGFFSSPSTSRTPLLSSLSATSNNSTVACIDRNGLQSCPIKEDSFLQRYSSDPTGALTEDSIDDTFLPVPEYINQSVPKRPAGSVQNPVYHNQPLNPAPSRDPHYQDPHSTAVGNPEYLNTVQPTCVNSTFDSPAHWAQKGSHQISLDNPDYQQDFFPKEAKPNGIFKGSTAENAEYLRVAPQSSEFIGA
EGFR L858R/C797S, sequence (P00533 25-1210 C797S/L858R): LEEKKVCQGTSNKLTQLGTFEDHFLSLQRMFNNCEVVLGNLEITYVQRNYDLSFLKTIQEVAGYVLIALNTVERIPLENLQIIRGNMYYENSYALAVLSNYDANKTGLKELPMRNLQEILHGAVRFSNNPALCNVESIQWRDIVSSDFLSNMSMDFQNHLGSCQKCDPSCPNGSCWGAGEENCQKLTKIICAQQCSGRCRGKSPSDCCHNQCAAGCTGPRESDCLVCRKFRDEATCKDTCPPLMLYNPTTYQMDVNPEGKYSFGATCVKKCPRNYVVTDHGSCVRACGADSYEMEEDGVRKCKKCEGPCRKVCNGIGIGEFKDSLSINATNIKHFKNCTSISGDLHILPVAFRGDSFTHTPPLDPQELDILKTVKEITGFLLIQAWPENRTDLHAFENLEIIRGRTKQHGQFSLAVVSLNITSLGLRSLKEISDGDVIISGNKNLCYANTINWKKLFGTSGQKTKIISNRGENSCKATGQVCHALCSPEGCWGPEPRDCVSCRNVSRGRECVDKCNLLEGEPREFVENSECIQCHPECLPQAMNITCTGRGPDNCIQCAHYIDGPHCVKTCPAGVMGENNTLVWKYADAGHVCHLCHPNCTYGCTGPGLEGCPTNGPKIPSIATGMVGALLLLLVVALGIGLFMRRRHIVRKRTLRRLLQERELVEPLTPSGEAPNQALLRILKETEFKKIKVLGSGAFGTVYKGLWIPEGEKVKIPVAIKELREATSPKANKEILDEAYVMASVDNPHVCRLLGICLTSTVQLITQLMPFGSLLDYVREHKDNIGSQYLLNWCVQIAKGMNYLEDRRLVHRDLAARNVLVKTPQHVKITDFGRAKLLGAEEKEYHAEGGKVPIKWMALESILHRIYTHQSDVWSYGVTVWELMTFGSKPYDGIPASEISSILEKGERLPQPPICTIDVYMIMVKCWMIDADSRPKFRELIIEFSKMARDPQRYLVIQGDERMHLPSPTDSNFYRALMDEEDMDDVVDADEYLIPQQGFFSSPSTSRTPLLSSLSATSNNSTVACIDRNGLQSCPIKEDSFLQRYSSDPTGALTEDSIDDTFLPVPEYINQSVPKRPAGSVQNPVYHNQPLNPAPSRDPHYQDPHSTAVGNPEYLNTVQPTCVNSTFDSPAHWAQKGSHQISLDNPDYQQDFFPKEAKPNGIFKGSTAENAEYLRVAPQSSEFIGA

With `C[C@]1(O)CC[C@@H](Nc2cc(Nc3ccnc(-c4cnn(S(=O)(=O)C5CC5)c4)n3)ncc2-c2cc(N3CCC(F)(F)CC3)ccn2)CC1` [Example 102, (1s,4s)-4-((6′-((2-(1-(Cyclopropylsulfonyl)-1H-pyrazol-4-yl)pyrimidin-4-yl)amino)-4-(4,4-difluoropiperidin-1-yl)-[2,3′-bipyridin]-4′-yl)amino)-1-methylcyclohexan-1-ol], the IC50 was > 10000 nM in test [1] (setting [6]); 21.3 nM in test [1] (setting [7]); 1 nM in test [2] (setting [8]); 0.7 nM in test [2] (setting [9]); 2.8 nM in test [3] (setting [10]); 29.9 nM in test [4] (setting [11]). Moreover, the IC50 was 8.2 nM in test [4] (setting [12]), 9.1 nM in test [5] (setting [13]) and 4.6 nM in test [5] (setting [14]).
With `CC(C)(O)[C@H]1CC[C@@H](Nc2cc(Nc3ccnc(-c4cnn(S(=O)(=O)C5CC5)c4)n3)ncc2-c2cc(N3CCC(F)(F)CC3)ccn2)CC1` [Example 103, 2-((1s,4s)-4-((6′-((2-(1-(Cyclopropylsulfonyl)-1H-pyrazol-4-yl)pyrimidin-4-yl)amino)-4-(4,4-difluoropiperidin-1-yl)-[2,3′-bipyridin]-4′-yl)amino)cyclohexyl)propan-2-ol], the IC50 in test [1] (setting [6]) was > 10000 nM; in test [2] (setting [8]), 3.9 nM; in test [3] (setting [15]), 6.6 nM; in test [4] (setting [11]), 654 nM; in test [5] (setting [13]), 66.5 nM.
Regarding `CC(C)(O)c1cc(-c2cnc(Nc3ccnc(-c4cnn(S(=O)(=O)C5CC5)c4)n3)cc2N[C@H]2CC[C@@](C)(O)CC2)ncc1F` [Example 104, (1s,4s)-4-((6′-((2-(1-(Cyclopropylsulfonyl)-1H-pyrazol-4-yl)pyrimidin-4-yl)amino)-5-fluoro-4-(2-hydroxypropan-2-yl)-[2,3′-bipyridin]-4′-yl)amino)-1-methylcyclohexan-1-ol], the IC50 in test [1] (setting [6]) was > 10000 nM; in test [1] (setting [7]), 21.9 nM; in test [2] (setting [8]) it was 0.8 nM; in test [2] (setting [9]), 0.6 nM; in test [3] (setting [15]) it was 1.8 nM; in test [3] (setting [10]), 1.1 nM. Further, the IC50 turned out to be 21.6 nM in test [4] (setting [11]), 0.9 nM in test [4] (setting [12]), 3.1 nM in test [5] (setting [13]) and 2.2 nM in test [5] (setting [14]).
As to `CC(C)(O)c1cc(-c2cnc(Nc3ccnc(-c4cnn(S(=O)(=O)C5CC5)c4)n3)cc2N[C@H]2CC[C@@H](CO)CC2)ncc1F` [Example 105, 2-(6′-((2-(1-(Cyclopropylsulfonyl)-1H-pyrazol-4-yl)pyrimidin-4-yl)amino)-5-fluoro-4′-(((1s,4s)-4-(hydroxymethyl)cyclohexyl)amino)-[2,3′-bipyridin]-4-yl)propan-2-ol], the IC50 was 787 nM in test [1] (setting [6]); 5.3 nM in test [1] (setting [7]); 1.2 nM in test [2] (setting [8]); 3.2 nM in test [3] (setting [15]); 2.1 nM in test [3] (setting [10]); 5.4 nM in test [4] (setting [11]). Moreover, the IC50 in test [4] (setting [12]) came out at 0.6 nM; in test [5] (setting [13]) it was 3.9 nM; in test [5] (setting [14]) it was 3 nM.
On to `CC(C)(O)c1cc(-c2cnc(Nc3ccnc(-c4cnn(S(=O)(=O)C5CC5)c4)n3)cc2N[C@H]2CC[C@@H](C(C)(C)O)CC2)ncc1F` [Example 106, 2-(6′-((2-(1-(Cyclopropylsulfonyl)-1H-pyrazol-4-yl)pyrimidin-4-yl)amino)-5-fluoro-4′-(((1s,4s)-4-(2-hydroxypropan-2-yl)cyclohexyl)amino)-[2,3′-bipyridin]-4-yl)propan-2-ol], for which the IC50 stood at 3710 nM in test [1] (setting [6]); 37.8 nM in test [1] (setting [7]); 4.1 nM in test [2] (setting [8]); 2.6 nM in test [2] (setting [9]); 8.6 nM in test [3] (setting [15]); 6.2 nM in test [3] (setting [10]). For the same molecule, the IC50 in test [4] (setting [11]) amounted to 9.6 nM; in test [4] (setting [12]) it was 4.1 nM; in test [5] (setting [13]), 11.2 nM.
As to `CN(C)C[C@H]1CC[C@@H](Nc2cc(Nc3ccnc(-c4cnn(S(=O)(=O)C5CC5)c4)n3)ncc2-c2cc(C(C)(C)O)c(F)cn2)CC1` [Example 107, 2-(6′-((2-(1-(Cyclopropylsulfonyl)-1H-pyrazol-4-yl)pyrimidin-4-yl)amino)-4′-(((1s,4s)-4-((dimethylamino)methyl)cyclohexyl)amino)-5-fluoro-[2,3′-bipyridin]-4-yl)propan-2-ol], the IC50 in test [1] (setting [6]) was found to be 327 nM; in test [1] (setting [7]) it was 0.4 nM; in test [2] (setting [8]), 0.2 nM; in test [2] (setting [9]), 0.2 nM; in test [3] (setting [15]), 0.4 nM; in test [3] (setting [10]), 0.3 nM. The IC50 in test [4] (setting [11]) turned out to be 1.8 nM; in test [4] (setting [12]), 0.1 nM; in test [5] (setting [13]), 0.5 nM; in test [5] (setting [14]), 0.1 nM.
With `CC(C)(O)c1ccnc(-c2cnc(Nc3ccnc(-c4cnn(S(=O)(=O)C5CC5)c4)n3)cc2N[C@H]2CC[C@@](C)(O)CC2)c1` [Example 108, (1s,4s)-4-((6′-((2-(1-(Cyclopropylsulfonyl)-1H-pyrazol-4-yl)pyrimidin-4-yl)amino)-4-(2-hydroxypropan-2-yl)-[2,3′-bipyridin]-4′-yl)amino)-1-methylcyclohexan-1-ol], the IC50 in test [1] (setting [6]) is 1860 nM; in test [1] (setting [7]), 6.9 nM; in test [2] (setting [8]), 0.2 nM; in test [2] (setting [9]), 0.2 nM; in test [3] (setting [15]), 0.4 nM; in test [3] (setting [10]) it was 0.4 nM. Further, the IC50 in test [4] (setting [11]) was determined as 3.6 nM; in test [4] (setting [12]), 0.4 nM; in test [5] (setting [13]), 0.9 nM; in test [5] (setting [14]) it was 0.4 nM.
Take `CC(C)(O)c1ccnc(-c2cnc(Nc3ccnc(-c4cnn(S(=O)(=O)C5CC5)c4)n3)cc2N[C@H]2CC[C@@H](C(C)(C)O)CC2)c1` [Example 109, 2-(6′-((2-(1-(Cyclopropylsulfonyl)-1H-pyrazol-4-yl)pyrimidin-4-yl)amino)-4′-(((1s,4s)-4-(2-hydroxypropan-2-yl)cyclohexyl)amino)-[2,3′-bipyridin]-4-yl)propan-2-ol]: the IC50 in test [1] (setting [6]) is 1360 nM; in test [1] (setting [7]), 5.2 nM; in test [2] (setting [8]) it was 0.5 nM; in test [2] (setting [9]), 0.6 nM; in test [3] (setting [10]), 2 nM; in test [4] (setting [11]), 11.1 nM. Moreover, the IC50 in test [4] (setting [12]) worked out at 0.1 nM; in test [5] (setting [13]) it was 6.4 nM; in test [5] (setting [14]), 0.8 nM.
Turning to `CN(C)C[C@H]1CC[C@@H](Nc2cc(Nc3ccnc(-c4cnn(S(=O)(=O)C5CC5)c4)n3)ncc2-c2cc(C(C)(C)O)ccn2)CC1` [Example 110, 2-(6′-((2-(1-(Cyclopropylsulfonyl)-1H-pyrazol-4-yl)pyrimidin-4-yl)amino)-4′-(((1s,4s)-4-((dimethylamino)methyl)cyclohexyl)amino)-[2,3′-bipyridin]-4-yl)propan-2-ol], the IC50 in test [1] (setting [6]) worked out at 178 nM; in test [1] (setting [7]), 0.9 nM; in test [2] (setting [8]) it was 0.1 nM; in test [2] (setting [9]), 0.1 nM; in test [3] (setting [15]), 0.2 nM; in test [3] (setting [10]), 0.1 nM. Besides, the IC50 in test [4] (setting [11]) is 0.5 nM; in test [4] (setting [12]), 0.04 nM; in test [5] (setting [13]) it was 0.3 nM; in test [5] (setting [14]) it was 0.3 nM.
In the case of `CC(C)(O)c1ccnc(-c2cnc(Nc3ccnc(-c4cnn(S(=O)(=O)C5CC5)c4)n3)cc2N[C@H]2CC[C@@H](CO)CC2)c1` [Example 111, 2-(6′-((2-(1-(Cyclopropylsulfonyl)-1H-pyrazol-4-yl)pyrimidin-4-yl)amino)-4′-(((1s,4s)-4-(hydroxymethyl)cyclohexyl)amino)-[2,3′-bipyridin]-4-yl)propan-2-ol], the IC50 is 198 nM in test [1] (setting [6]); 0.7 nM in test [1] (setting [7]); 0.2 nM in test [2] (setting [8]); 0.2 nM in test [2] (setting [9]); 0.5 nM in test [3] (setting [15]); 0.3 nM in test [3] (setting [10]). Also, the IC50 in test [4] (setting [11]) is 0.4 nM; in test [4] (setting [12]), 0.03 nM; in test [5] (setting [13]), 0.7 nM; in test [5] (setting [14]), 0.2 nM.
As to `C[C@]1(O)CC[C@@H](Nc2cc(Nc3ccnc(-c4cnn(S(=O)(=O)C5CC5)c4)n3)ncc2-c2cc(CN3CCC(F)(F)CC3)ccn2)CC1` [Example 112, (1s,4s)-4-((6′-((2-(1-(Cyclopropylsulfonyl)-1H-pyrazol-4-yl)pyrimidin-4-yl)amino)-4-((4,4-difluoropiperidin-1-yl)methyl)-[2,3′-bipyridin]-4′-yl)amino)-1-methylcyclohexan-1-ol], the IC50 in test [1] (setting [6]) was > 10000 nM; in test [1] (setting [7]) it was 11.7 nM; in test [2] (setting [8]), 3.6 nM; in test [2] (setting [9]), 2 nM; in test [3] (setting [15]) it was 5.7 nM; in test [3] (setting [10]) it was 4.5 nM. In addition, the IC50 in test [4] (setting [11]) was found to be 6.9 nM; in test [4] (setting [12]), 6.8 nM; in test [5] (setting [13]), 23.2 nM; in test [5] (setting [14]), 5.1 nM.
